Row | melting point | SMILES
1 | 90 to 100 °C | CC(C)Oc1ccc2nc(COc3ccc(CC4SC(=O)N(C(c5ccccc5)(c5ccccc5)c5ccccc5)C4=O)cc3)n(C)c2n1 (stereo not drawn)
2 | 202 °C | O=C(O)CON=c1c2nccc3c(Cl)ccc(c32)n2cccc12
3 | 132 to 134 °C | CCc1cnc(C2=NC(C)(C(C)C)C(=O)N2)c(C(=O)NCCCC(=O)OC)c1 (stereo not drawn)
4 | 140 to 141 °C | CC(=O)Nc1nc2c(Oc3cc(-c4ccc(C(F)(F)F)nc4NC4CCN(C(C)C)C4)ncn3)cccc2s1 (stereo not drawn)
5 | 144 to 145 °C | CCn1nnnc1C(C=O)=C(c1ccc(F)cc1)c1ccc(F)cc1
6 | 114 to 117 °C | CCN1CCC(=O)C(=C2SC=CS2)C1=O
7 | 178 °C | Cc1cc(F)c([N+](=O)[O-])cc1N
8 | 88 to 90 °C | CC(=O)c1cc(OCc2ccccc2)cc(NC(=O)C(C)(C)Br)c1O
9 | 80 to 82 °C | CN(C)CCNC(=O)c1cc(Oc2ccc3c(C(=O)Nc4cccc(C(F)(F)F)c4)cccc3c2)ccn1
10 | 156 to 158 °C | COc1ccc2c(c1)Sc1cc(OC(C)=O)c3ccccc3c1N2
11 | 113 to 114 °C | CCOC(=O)C(C)(C)n1c(=O)c2ccccc2n(CCCCBr)c1=O
12 | 67.5 °C | CCOc1ccc(-n2c(C(C)N(Cc3cccnc3)C(=O)OC(C)(C)C)nc3ccccc3c2=O)cc1 (stereo not drawn)
13 | 35 to 36 °C | CC1=C2CCC(=O)C23CCC(C3)C1(C)C (stereo not drawn)
14 | 182 °C | COC(=O)c1cc(C(=O)c2ncc3ccc(NC(=O)OC(C)(C)C)cn23)ccc1[N+](=O)[O-]
15 | 139 to 141 °C | Cc1cc(-c2nncc3c(C(C)(C)C)c(OCc4cccnc4)nn23)no1
16 | 176 to 178 °C | CC(c1oc2ccccc2c(=O)c1-c1ccccc1)n1nc(-c2ccc3cn[nH]c3c2)c2c(N)ncnc21 (stereo not drawn)
17 | 69.5 to 70.5 °C | CC(C)OP(C)(=O)COS(=O)(=O)c1c(Cl)cccc1C(C)C (stereo not drawn)
18 | 107 to 109 °C | C=CCc1c(C)ccc(N2C(=O)c3ccccc3C2=O)c1OCc1ccccc1
19 | 240 to 242 °C | Cc1cc(C)c(-c2c(O)sc(-c3ccccc3)nc2=O)c(C)c1
20 | 266 to 268 °C | Cc1c(-c2ccc(O)cc2O)c(=O)oc2cc(F)ccc12
21 | 203 to 204 °C | Clc1ccc(C2=Nc3cccnc3Nc3ccccc32)cc1
22 | 109 to 111 °C | Cc1ccc2c(c1)c(-c1ccccc1)nn2CO

Row | melting point | SMILES
23 | 225 to 230 °C | c1ccc(-c2nc(-c3ccc4c(c3)OCO4)c3cc4c(cc3n2)OCO4)cc1
24 | 45 °C | O=CNCc1ccc2[nH]cc(CCN3C(=O)c4ccccc4C3=O)c2c1
25 | 120 °C | Cc1cccc(-c2nc3ccccn3c2-c2ccnc(-c3ccc(OCc4cn(C)cn4)cc3)c2)n1
26 | 143 to 146 °C | CC(C)CCN1CCC2(CC1)CSC1=C(O2)c2ccccc2C(=O)C1=O
27 | 172 to 174 °C | CC1(CN2CCC(C(=O)c3ccc(C(F)(F)F)cc3)CC2)Cn2cc([N+](=O)[O-])nc2O1 (stereo not drawn)
28 | 56 to 58 °C | COc1ccc(C(=O)CCCCc2ccccc2)cc1OC
29 | 251 °C | FC(F)(F)COc1cc(-c2cc(C(F)(F)F)n3ncc(-c4ccncc4)c3n2)ccc1C(F)(F)F
30 | 142 to 145 °C | COC(=O)c1ccc2cc(OC)c(OC)cc2c1-c1ccnc(Cl)c1
31 | 133 to 136 °C | CCOC(=O)Cc1cc(OC)c2c(c1)C1(O)C(=O)c3ccccc3C1(O)O2 (stereo not drawn)
32 | 140 to 141 °C | CNC(=O)c1cc(Oc2ccc(N)c(F)c2)ccn1
33 | 63 to 64 °C | CCCCCCCCCCCCCCCCCCOc1ccc(C(=O)C(=O)N(CC(=O)OCC)CC(=O)OCC)cc1
34 | 184 °C | O=S(=O)(Nc1cnc(-n2cnnn2)nc1NCc1ccccc1)c1ccc(Br)cc1
35 | 121 to 123 °C | CN(c1cccc2cc(C3=NCC(CC(=O)O)S3)[nH]c12)S(=O)(=O)c1nccs1 (stereo not drawn)
36 | 53 to 55 °C | C=CCc1cc(N2CCN(c3ccncc3)CC2)ccc1OCCCC(=O)OCC
37 | 228 to 234 °C | CC(=O)c1ccc2nc(N)[nH]c2c1
38 | 151 to 153 °C | CC(C)(C)OC(=O)NC1CCCCCC=CC2CC2(C(=O)NS(=O)(=O)C2CC2)NC(=O)C2CC(OC(=O)c3cccc(C#N)c3)CN2C1=O (stereo not drawn)
39 | 36 to 39 °C | CCCCCCCCCCCCCCCSCCCO
40 | 43 °C | CCCC1CCC(C2CC3(C2)CC(C(F)(F)Oc2cc(F)c(F)c(F)c2)C3)CC1 (stereo not drawn)
41 | 96 to 99 °C | CC1(C)[C@@H](CNc2ncccc2C#N)CC[C@@]1(C)NCC(=O)N1C[C@@H](F)C[C@H]1C#N
42 | 131 to 132 °C | N#CCCCCCC(=NOCCNC(c1ccccc1)(c1ccccc1)c1ccccc1)c1ccc(Cl)c(Cl)c1
43 | 121 to 123 °C | O=c1n(CC(O)c2ccccc2)c2c(Br)c(Br)c(Br)c(Br)c2n1CC(O)c1ccccc1 (stereo not drawn)
44 | 146 to 148 °C | CNc1nc(-c2cccc(NCc3ccccc3)c2)c2cc(OC)c(OC)cc2n1

Row | melting point | SMILES
45 | 239 to 240 °C | O=CNc1ccc(C2=NNC(=O)C3CC23)cc1 (stereo not drawn)
46 | 54 to 55.5 °C | ClCCCC1(c2ccccc2)OCCO1
47 | 188 to 189 °C | O=C(O)COc1ccc2c(-c3ccccc3F)noc2c1Cl
48 | 118 to 121 °C | Cc1csc(-c2nnc(NC(C)c3ccccc3)c3ccccc23)c1 (stereo not drawn)
49 | 97 to 99 °C | CC(C)CN(CC(C)C)C(=O)c1c([N+](=O)[O-])cccc1[N+](=O)[O-]
50 | 109 to 111 °C | OCCOc1cccc2ncccc12
51 | 110 to 112 °C | N#Cc1cc(F)c(Cl)c(Br)c1Cl
52 | 182 to 183 °C | CNC(=O)c1ccc(-c2nn(Cc3ccccc3)c3ccccc23)o1
53 | 285 to 290 °C | N#CC1=C(N)N(c2ccccc2)CC1=O
54 | 170 °C | COc1ccc(-c2cn(-c3cccc(OCCCl)c3)c3ncnc(N)c23)cc1OCc1ccccc1
55 | 47 to 48 °C | CCOC(=O)CC1CCN(C(=O)c2ccccc2)CC1
56 | 186 to 188 °C | Cc1cc(C)cc(NC(=O)Cc2ccc(OC3(C(=O)O)CCOCC3)cc2)c1
57 | 204 to 205 °C | COC(=O)c1nc(-c2ccc(C(F)(F)F)cc2)nc(N)c1Cl
58 | 135 °C | O=Cc1cc([N+](=O)[O-])c(CCl)cc1O
59 | 106 to 108 °C | COCCNc1c([N+](=O)[O-])cc(C(F)(F)F)c(Cl)c1[N+](=O)[O-]
60 | 178 to 182 °C | COc1ccc(N2CCCn3c2nc2c(Cl)ccc(C(OC(F)F)C(F)(F)F)c23)c(C)c1 (stereo not drawn)
61 | 86 to 91 °C | COC(=O)C(C(=O)c1cn2c3c(cccc13)CCC2)c1cn(C(=O)OC(C)(C)C)c2ccccc12 (stereo not drawn)
62 | 67 to 69 °C | OC(c1cccc(Br)n1)(C(F)(F)F)C(F)(F)F
63 | 118 °C | O=C1CCCc2c(Cl)cccc2-c2ccccc21
64 | 60 to 63 °C | O=S(=O)(c1ccc(Cl)cc1)C(C/C=C\CO)c1cc(F)ccc1F (stereo not drawn)
65 | 223 to 224 °C | O=C(O)c1cccc(-c2ccc3c(c2)C(c2ccc(Cl)cc2Cl)CCO3)c1 (stereo not drawn)

Row | SMILES | melting point
66 | Cc1ccccc1-c1c(C#N)nn(-c2c(Cl)cc(C(F)(F)F)cc2Cl)c1N | 199 to 202 °C
67 | CNC(=O)ON=Cc1nn(-c2c(Cl)cc(C(F)(F)F)cc2Cl)c(N)c1S(C)=O (stereo not drawn) | 146 to 147 °C
68 | CC(C)NC(=O)N1N=C(c2ccc([N+](=O)[O-])cc2)c2cc(Cl)ccc2CC1C (stereo not drawn) | 172 to 174 °C

Reference: a melting point compilation (Tetko et al.; mined from patent text by program, amines drawn as free bases though some values may be those of a salt)
